Results published in article PMC6263107 (Journal of Enzyme Inhibition and Medicinal Chemistry, 2018).
“And” between values parts separate entries of the source, which are not always exact repeats. Identical values can stand only once. Like-named read-outs stand apart in the source and are kept apart here.

Tests used:
[1] = target: T1, hAChE (Homo sapiens, UniProt P22303); assay: biochemical; details: for IC50: mean ± SEM
T1 construct: 10 µl of cholinesterase obtained from human erythrocyte hemolyzate, out of blood samples; from tissue; host or cells: human erythrocyte hemolysate from blood samples
Method: This blend was preincubated for 5 min and 20 µl of 0.01 M substrate (ATCh or BTCh) was added to initiate the reaction. […] The IC50 values are expressed as a mean ± SEM.
Next, as planned at the beginning of the project, the analysis of the antioxidant capacity of KT 2a–d, 2f–h, and 2l was carried out.

[2] = target: T2, eqBuChE (Equus caballus, UniProt P81908); assay: biochemical; details: for IC50: mean ± SEM; for inhibition at 10 µM: Table 2 footnote b
T2 construct: serum horse BuChE (eqBuChE); from tissue; host or cells: horse serum
Method: (§1) Ellman’s protocol was followed to perform the anticholinesterasic activity. Briefly, the reaction was carried out in a final volume of 3 ml of a phosphate-buffered solution (0.1 M) at pH =8.0 containing (2.625 µl, 0.35 mM) of 5,5’-dithiobis-2-nitrobenzoic acid (DTNB), 40 µl 1% w/v Bovine Albumin Serum phosphate-buffered solution (BSA), (29 µl, 0.035 U/ml) of EeAChE or (60 µl, 0.05 U/ml) of eqBuChE, and 3 µl of tested compound, which were incubated for 10 min. Then, the acetylthiocholine iodide or butyrylthiocholine was added, and the reaction was incubated for additional 15 min. The activity in absence of compound was used as control.

[3] = target: EeAChE (Electrophorus electricus, UniProt O42275); assay: biochemical; details: for IC50: mean ± SEM
Method: as §1

[4] = Oxygen radical absorbance capacity assay (ORAC-FL); details: for ORAC: ORAC-FL, Trolox equivalents
Method: The antioxidant activity of KTs was determined using the ORAC-FL method described by Dávalos et al.[30] using fluorescein as a fluorescent probe with minor modification. Briefly, fluorescein and antioxidant were incubated in a black 96-well microplate (Nunc) for 15 min at 37 °C. The 2,2’-azobis(amidinopropane) dihydrochloride (AAPH) was then added quickly using the built-in injector of Varioskan Flash plate reader (Thermo Scientific).
Results are expressed in the Trolox equivalents (TE) unit in relation to radical scavenging properties of Trolox.

[5] = in vitro; format: cell-based; details: human, HepG2 cells, percent of cell viability vs DMSO-treated control, read-out: HepG2 cell viability
Method: (§2) The culture medium was refreshed after 24 h of incubation and 100 µl of six different concentrations (1–1000 µM) of test compounds or DMSO (0.1%) were then added. The cell viability was monitored by colourimetric assay with 3-[4,5-dimethylthiazol-2-yl]-2,5-diphenyl-tetrazolium bromide (MTT).
(§3) In this sense, all new KTs were submitted to the in vitro cell viability test (MTT assay) using human hepatocellular carcinoma cell line (HepG2)[26], as the most accepted probe to evaluate hepatotoxic effects. For this experiment, six different concentrations from 1 to 1000 µM were used.

[6] = test system: SH-SY5Y cells; assay: Neuroprotection against oligomycin/rotenone-induced cell death (MTT); format: cell-based, human; details: O 10 µM / R 30 µM
Method: (§4) SH-SY5Y cell culture and treatment with compounds 2b–d and 2f. The cultures of human SH-SY5Y neuroblastoma cells kept under a CO2/air (5%/95%) humidified atmosphere at 37 °C for 24 h were treated with 100 µl of the test compounds or DMSO (0.1%) in DMEM/F12 (1:1) medium supplemented with 1% fetal bovine serum, 1X non-essential amino acids, 100 units/ml penicillin and 10 mg/ml streptomycin. Treatment medium was renewed every day for up to 48 h of treatment. MTT assay was then performed.
(§5) SH-SY5Y cells were seeded in 96-well culture plates at a density of 8 × 10^4 cells per well in DMEM/F12 (1:1) medium supplemented with 10% fetal bovine serum, 1X non-essential amino acids, 100 units/mL penicillin and 10 mg/mL streptomycin (Dutscher, France). After 24 h of incubation, the cultures were treated with 100 µl of the test compounds or DMSO (0.1%) in the same medium. Following 24 h, the cells were co-incubated with oligomycin A (10 µM)/rotenone (30 µM) (Sigma, France) or Aβ 1–40 (30 µM) with or without the tested compounds 2b–d and 2f at nontoxic concentrations against cells for an additional period of 24 h. MTT assay was then performed to determine the % of cell viability.
(§6) The ability to prevent the human neuroblastoma cell line SH-SY5Y cell death induced by toxic insults such as Αβ 1–40, implicated in ROS production and apoptosis-related signalling pathways, and oligomycin/rotenone (O/R)[39], was then assayed to determine the neuroprotective capacity of the four less hepatotoxic KTs 2b–d and 2f at nontoxic concentration against SH-SY5Y 3 and 10 µM, using melatonin and KA as reference molecules. For the evaluation of the neuroprotective effect, the cytotoxicity of O/R (10 µM/30 µM) on SH-SY5Y cell viability was determined as well as the toxicity of the selected KTs 2b–d and 2f at.

[7] = test system: SH-SY5Y cells; assay: Neuroprotection against Aβ1–40 peptide-induced cell death (MTT); format: cell-based, human; details: for Aβ1–40 (%) neuroprotection: Aβ 1–40 30 µM
Method: as §4, §5, §6

[8] = test system: HepG2 cells; assay: in vitro; format: cell-based
Method: as §2, §3

[9] = test system: SH-SY5Y cells; assay: Toxicity of compounds on SH-SY5Y cells (MTT); format: cell-based; details: at 10 µM
Method: as §4

[10] = test system: SH-SY5Y cells; parameters: method as in PMID 27736061; details: Aβ 1–40 30 µM, cited from earlier work
[11] = test system: SH-SY5Y cells; parameters: method as in PMID 27736061; details: O 10 µM / R 30 µM, cited from earlier work

T2 sequence (P81908 whole entry): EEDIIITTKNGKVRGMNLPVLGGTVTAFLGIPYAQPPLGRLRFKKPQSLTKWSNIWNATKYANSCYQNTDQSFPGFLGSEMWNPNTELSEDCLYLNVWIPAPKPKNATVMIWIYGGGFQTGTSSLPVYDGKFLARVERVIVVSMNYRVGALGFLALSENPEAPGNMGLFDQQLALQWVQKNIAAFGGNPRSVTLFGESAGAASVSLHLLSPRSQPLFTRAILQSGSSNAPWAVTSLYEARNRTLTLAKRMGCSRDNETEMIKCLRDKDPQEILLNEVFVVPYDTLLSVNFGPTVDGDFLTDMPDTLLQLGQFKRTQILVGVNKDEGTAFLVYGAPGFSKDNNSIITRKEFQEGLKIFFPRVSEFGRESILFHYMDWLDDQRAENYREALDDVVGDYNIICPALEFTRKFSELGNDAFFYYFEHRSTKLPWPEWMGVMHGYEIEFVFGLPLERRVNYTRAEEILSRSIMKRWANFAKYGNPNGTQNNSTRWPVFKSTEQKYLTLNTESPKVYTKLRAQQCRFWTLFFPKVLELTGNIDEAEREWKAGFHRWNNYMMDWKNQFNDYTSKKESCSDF
EeAChE, sequence (O42275 24-633): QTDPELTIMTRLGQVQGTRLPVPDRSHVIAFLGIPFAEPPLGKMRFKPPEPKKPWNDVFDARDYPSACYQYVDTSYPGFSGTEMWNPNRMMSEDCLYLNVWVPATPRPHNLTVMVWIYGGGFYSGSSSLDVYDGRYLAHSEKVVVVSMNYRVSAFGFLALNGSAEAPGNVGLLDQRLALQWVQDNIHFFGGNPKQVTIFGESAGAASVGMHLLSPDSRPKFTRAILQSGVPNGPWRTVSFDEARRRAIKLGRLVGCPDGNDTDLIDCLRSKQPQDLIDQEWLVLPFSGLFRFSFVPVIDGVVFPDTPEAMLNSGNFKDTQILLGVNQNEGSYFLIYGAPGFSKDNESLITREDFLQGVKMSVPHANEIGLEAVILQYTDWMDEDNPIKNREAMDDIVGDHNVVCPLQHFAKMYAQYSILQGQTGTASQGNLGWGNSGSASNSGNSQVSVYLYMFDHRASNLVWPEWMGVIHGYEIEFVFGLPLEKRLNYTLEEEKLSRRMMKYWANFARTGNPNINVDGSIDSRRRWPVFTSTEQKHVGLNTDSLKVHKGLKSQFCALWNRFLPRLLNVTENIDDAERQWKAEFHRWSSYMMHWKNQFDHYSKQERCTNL
T1 sequence (P22303 32-617 isoform P22303-2 limits assumed): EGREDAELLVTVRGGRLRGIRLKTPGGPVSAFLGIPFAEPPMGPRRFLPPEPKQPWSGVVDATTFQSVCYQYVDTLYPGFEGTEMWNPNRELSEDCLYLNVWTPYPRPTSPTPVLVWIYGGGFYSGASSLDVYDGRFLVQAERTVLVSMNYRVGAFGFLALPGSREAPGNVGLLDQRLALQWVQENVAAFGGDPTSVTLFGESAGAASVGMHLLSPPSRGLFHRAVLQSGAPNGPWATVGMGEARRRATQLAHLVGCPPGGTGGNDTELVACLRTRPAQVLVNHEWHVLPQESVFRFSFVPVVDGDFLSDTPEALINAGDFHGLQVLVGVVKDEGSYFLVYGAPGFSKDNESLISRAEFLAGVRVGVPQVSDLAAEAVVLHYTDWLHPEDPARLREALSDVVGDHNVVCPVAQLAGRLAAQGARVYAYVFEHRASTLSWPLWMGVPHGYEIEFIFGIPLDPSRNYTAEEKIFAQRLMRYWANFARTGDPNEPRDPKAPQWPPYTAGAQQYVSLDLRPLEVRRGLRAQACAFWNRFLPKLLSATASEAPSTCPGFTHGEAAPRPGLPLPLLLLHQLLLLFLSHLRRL

Compound	IC50 [2] [µM]	IC50 [3] [µM]	ORAC [4]	viability at 1 µM [5] [%]	viability at 3 µM [5] [%]	viability at 10 µM [5] [%]	viability at 30 µM [5] [%]	viability at 100 µM [5] [%]	viability at 300 µM [5] [%]	viability at 1000 µM [5] [%]	O/R (%) neuroprotection ([6]; compound 3 µM) [%]	O/R (%) neuroprotection ([6]; compound 10 µM)	Aβ1–40 (%) neuroprotection ([7]; compound 3 µM)	Aβ1–40 (%) neuroprotection ([7]; compound 10 µM)	inhibition at 10 µM [2] [%]	other results
Nc1c2c(nc3c1C(c1ccccc1)c1oc(CO)cc(=O)c1O3)CCCC2 (stereo not drawn) [KT2a]	12.15 ± 0.09	3.3 ± 0.09	2.58±0.22 TE and 2.58 TE	96.8 ± 1	94.9 ± 2.9	99.3 ± 1.7	105 ± 5.3	108 ± 5	95 ± 3.4	50.3 ± 5.7	–	–	–	–	–	inhibition at 10 µM ([1]; at 10 μM, Table 2 footnote b): < 50%
Cc1ccc(C2c3oc(CO)cc(=O)c3Oc3nc4c(c(N)c32)CCCC4)cc1 (stereo not drawn) [KT2b]	10.09 ± 0.09	1.4	2.96±0.18 TE	105 ± 3.1	110 ± 3.2	105 ± 1.9	107 ± 2.9	113 ± 8.4	108 ± 5.7	87.9 ± 5.2	19.66 ± 0.07	3.65 ± 0.07%	27.85 ± 0.15 %	np	–	IC50 [1]: 13.7 ± 1.7 µM; neuroprotective activity ([7]; on any of the toxic insults investigated (O/R, Aβ 1–40)): very poor neuroprotective activity; HepG2 toxicity ([8]; concentrations up to 1000 µM): no significant toxicity
COc1ccccc1C1c2oc(CO)cc(=O)c2Oc2nc3c(c(N)c21)CCCC3 (stereo not drawn) [KT2c]	–	2.39 ± 0.02	6.05±0.41 TE and 6.05 TE	94.7 ± 2.4	103 ± 2.8	99 ± 1.1	98.2 ± 2.2	96.1 ± 1.5	88.5 ± 7.1	70.7 ± 7.7	12.18 ± 0.08	16.56 ± 0.02%	np	np	< 50	inhibition at 10 µM ([1]; at 10µM, Table 1S footnote c): < 50%
COc1cccc(C2c3oc(CO)cc(=O)c3Oc3nc4c(c(N)c32)CCCC4)c1 (stereo not drawn) [KT2d, 11-amino-2-(hydroxymethyl)-12-(3-methoxyphenyl)-7,9,10,12-tetrahydropyrano [2',3':5,6] pyrano[2,3-b]quinolin-4(8H)-one]	–	0.64 ± 0.06	4.79 TE	101 ± 2.5	98 ± 4.1	102 ± 3.2	102 ± 1.8	99 ± 1.1	87.2 ± 6.1	65.5 ± 1.3	24.35 ± 0.05	12.53 ± 0.09%	42.92 ± 0.20 %	41.19 ± 0.18 %	< 50	IC50 [1]: 4.52 ± 0.24 µM; fold less active than tacrine (EeAChE) ([3]; ratio of IC50 values vs tacrine): approximately 20 fold; toxicity for SH-SY5Y cells [9]: nontoxic; neuroprotection against Aβ 1–40 ([7]; at 3 µM and 10 µM): significant and similar neuroprotection; ORAC ([4]; listed as 2d): 4.79±0.39 TE; fold more potent than FA (ORAC) ([4]; vs ferulic acid): 1.3 fold; fold less toxic than tacrine (HepG2) ([8]; at 1000 µM): six-fold less-hepatotoxic than tacrine
Nc1c2c(nc3c1C(c1ccccc1F)c1oc(CO)cc(=O)c1O3)CCCC2 (stereo not drawn) [KT2f]	6.69 ± 0.1	2.11 ± 0.01	3.85±0.42 TE	108 ± 6.2	96.1 ± 2.5	99.2 ± 2.8	102 ± 7.1	101 ± 9.2	95.3 ± 4.1	64 ± 8	16.50 ± 0.07	np	25.10 ± 0.06 %	4.1 ± 0.04%	–	inhibition at 10 µM ([1]; at 10 μM, Table 2 footnote b): < 50%
Nc1c2c(nc3c1C(c1c(Cl)cccc1Cl)c1oc(CO)cc(=O)c1O3)CCCC2 (stereo not drawn) [KT2l]	–	2.12 ± 0.09	6.14±0.40 TE and 6.14 TE	99.9 ± 2.7	102 ± 2.3	102 ± 2.6	99.9 ± 3.2	88.9 ± 8	68.3 ± 9.3	50.5 ± 7.5	–	–	–	–	< 50	–
COc1ccc2[nH]cc(CCNC(C)=O)c2c1 [Melatonin, melatonin]	–	–	–	–	–	–	–	–	–	–	–	–	–	–	–	Aβ1–40 (%) neuroprotection ([10]; compound 1 µM): 35.5 ± 4.1 %; Aβ1–40 (%) neuroprotection ([10]; compound 3 µM): 60.2 ± 3.57 %; O/R (%) neuroprotection ([11]; compound 1 µM): 50.1 ± 3.42 %; O/R (%) neuroprotection ([11]; compound 3 µM): 59.1 ± 4.50 %
